From ChEMBL document CHEMBL5241132, “Design, synthesis and in vitro biological evaluation of 2-aminopyridine derivatives as novel PI3Kδ inhibitors for hematological cancer” (Bioorg Med Chem Lett, 2023)
Each block holds one compound with its values, some of them ahead of it.

Assays:
[1] = target: T1, Phosphatidylinositol 4,5-bisphosphate 3-kinase catalytic subunit delta isoform (Homo sapiens, UniProt O00329); experiment: Inhibition of PI3Kdelta (unknown origin) by ADP Glo luminescent assay
T1 sequence (O00329 whole entry): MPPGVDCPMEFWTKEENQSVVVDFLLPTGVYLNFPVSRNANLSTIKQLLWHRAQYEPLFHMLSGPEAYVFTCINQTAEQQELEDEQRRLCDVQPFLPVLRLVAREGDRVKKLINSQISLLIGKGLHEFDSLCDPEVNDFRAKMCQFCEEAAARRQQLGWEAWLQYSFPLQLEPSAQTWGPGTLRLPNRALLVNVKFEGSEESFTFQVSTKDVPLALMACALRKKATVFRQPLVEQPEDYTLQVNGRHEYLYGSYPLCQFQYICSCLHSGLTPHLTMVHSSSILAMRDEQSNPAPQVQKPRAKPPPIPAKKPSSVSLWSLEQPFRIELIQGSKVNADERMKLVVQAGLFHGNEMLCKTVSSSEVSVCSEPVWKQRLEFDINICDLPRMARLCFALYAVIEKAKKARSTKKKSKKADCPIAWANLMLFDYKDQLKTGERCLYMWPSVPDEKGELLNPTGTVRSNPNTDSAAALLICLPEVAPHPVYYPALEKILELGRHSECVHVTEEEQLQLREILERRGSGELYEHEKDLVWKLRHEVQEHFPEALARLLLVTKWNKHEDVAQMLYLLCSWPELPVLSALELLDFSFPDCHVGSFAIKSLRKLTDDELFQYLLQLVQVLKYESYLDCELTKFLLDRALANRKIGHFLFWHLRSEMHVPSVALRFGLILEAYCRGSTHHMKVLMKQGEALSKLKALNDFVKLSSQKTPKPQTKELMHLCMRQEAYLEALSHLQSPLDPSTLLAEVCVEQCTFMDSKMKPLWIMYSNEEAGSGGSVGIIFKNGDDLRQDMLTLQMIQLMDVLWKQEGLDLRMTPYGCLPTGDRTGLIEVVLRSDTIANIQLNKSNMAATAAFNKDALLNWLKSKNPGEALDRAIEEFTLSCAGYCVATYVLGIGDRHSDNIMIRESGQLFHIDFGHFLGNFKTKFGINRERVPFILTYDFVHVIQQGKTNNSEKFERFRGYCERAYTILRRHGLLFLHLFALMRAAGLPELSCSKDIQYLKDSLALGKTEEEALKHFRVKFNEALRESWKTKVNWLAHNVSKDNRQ

EOL1 = experiment: Antiproliferative activity against human EOL1 cells assessed as inhibition of cell growth; format: functional, cell-based
KG-1 = experiment: Antiproliferative activity against human KG-1 cells assessed as inhibition of cell growth; format: functional, cell-based
MV4-11 [2] = experiment: Antiproliferative activity against human MV4-11 cells assessed as inhibition of cell growth; format: functional, cell-based
HL-60 = experiment: Antiproliferative activity against human HL-60 cells assessed as inhibition of cell growth; format: functional, cell-based
[3] = Antiproliferative activity against human MOLM16 cells assessed as inhibition of cell growth; format: functional, cell-based, MOLM-16
[4] = target: Phosphatidylinositol 4,5-bisphosphate 3-kinase catalytic subunit beta isoform (Homo sapiens, UniProt P42338); experiment: Inhibition of PI3Kbeta (unknown origin)
Phosphatidylinositol 4,5-bisphosphate 3-kinase catalytic subunit beta isoform, sequence (P42338 whole entry, canonical isoform): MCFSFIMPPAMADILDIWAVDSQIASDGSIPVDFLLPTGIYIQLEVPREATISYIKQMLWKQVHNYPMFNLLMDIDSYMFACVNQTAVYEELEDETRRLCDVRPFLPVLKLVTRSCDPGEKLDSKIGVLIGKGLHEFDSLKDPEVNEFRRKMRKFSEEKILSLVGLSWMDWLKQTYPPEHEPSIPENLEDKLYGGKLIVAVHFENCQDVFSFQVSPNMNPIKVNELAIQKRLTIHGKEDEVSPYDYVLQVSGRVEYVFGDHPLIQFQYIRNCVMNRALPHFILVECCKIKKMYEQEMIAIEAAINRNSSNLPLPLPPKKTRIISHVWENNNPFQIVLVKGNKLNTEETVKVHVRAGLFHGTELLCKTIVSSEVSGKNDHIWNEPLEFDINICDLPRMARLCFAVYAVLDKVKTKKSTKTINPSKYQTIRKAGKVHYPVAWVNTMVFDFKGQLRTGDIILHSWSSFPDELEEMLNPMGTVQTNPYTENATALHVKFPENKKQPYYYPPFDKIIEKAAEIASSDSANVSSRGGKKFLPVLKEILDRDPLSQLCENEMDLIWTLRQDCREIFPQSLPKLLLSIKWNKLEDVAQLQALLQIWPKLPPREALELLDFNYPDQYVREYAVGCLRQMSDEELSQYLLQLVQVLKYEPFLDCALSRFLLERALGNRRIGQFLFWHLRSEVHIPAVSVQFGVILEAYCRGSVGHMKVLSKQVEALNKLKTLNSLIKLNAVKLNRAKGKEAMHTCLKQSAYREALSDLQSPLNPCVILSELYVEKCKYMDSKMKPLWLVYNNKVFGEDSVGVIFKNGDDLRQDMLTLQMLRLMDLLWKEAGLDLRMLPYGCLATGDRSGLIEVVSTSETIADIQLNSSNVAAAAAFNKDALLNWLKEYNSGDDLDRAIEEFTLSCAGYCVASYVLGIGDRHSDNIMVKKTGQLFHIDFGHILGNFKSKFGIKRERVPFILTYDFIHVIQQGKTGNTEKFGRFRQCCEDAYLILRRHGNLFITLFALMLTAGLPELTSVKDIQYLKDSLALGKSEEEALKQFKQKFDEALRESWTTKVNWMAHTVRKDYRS

[5] = target: Phosphatidylinositol 4,5-bisphosphate 3-kinase catalytic subunit alpha isoform (Homo sapiens, UniProt P42336); experiment: Inhibition of PI3Kalpha (unknown origin)
Phosphatidylinositol 4,5-bisphosphate 3-kinase catalytic subunit alpha isoform, sequence (P42336 whole entry, canonical isoform): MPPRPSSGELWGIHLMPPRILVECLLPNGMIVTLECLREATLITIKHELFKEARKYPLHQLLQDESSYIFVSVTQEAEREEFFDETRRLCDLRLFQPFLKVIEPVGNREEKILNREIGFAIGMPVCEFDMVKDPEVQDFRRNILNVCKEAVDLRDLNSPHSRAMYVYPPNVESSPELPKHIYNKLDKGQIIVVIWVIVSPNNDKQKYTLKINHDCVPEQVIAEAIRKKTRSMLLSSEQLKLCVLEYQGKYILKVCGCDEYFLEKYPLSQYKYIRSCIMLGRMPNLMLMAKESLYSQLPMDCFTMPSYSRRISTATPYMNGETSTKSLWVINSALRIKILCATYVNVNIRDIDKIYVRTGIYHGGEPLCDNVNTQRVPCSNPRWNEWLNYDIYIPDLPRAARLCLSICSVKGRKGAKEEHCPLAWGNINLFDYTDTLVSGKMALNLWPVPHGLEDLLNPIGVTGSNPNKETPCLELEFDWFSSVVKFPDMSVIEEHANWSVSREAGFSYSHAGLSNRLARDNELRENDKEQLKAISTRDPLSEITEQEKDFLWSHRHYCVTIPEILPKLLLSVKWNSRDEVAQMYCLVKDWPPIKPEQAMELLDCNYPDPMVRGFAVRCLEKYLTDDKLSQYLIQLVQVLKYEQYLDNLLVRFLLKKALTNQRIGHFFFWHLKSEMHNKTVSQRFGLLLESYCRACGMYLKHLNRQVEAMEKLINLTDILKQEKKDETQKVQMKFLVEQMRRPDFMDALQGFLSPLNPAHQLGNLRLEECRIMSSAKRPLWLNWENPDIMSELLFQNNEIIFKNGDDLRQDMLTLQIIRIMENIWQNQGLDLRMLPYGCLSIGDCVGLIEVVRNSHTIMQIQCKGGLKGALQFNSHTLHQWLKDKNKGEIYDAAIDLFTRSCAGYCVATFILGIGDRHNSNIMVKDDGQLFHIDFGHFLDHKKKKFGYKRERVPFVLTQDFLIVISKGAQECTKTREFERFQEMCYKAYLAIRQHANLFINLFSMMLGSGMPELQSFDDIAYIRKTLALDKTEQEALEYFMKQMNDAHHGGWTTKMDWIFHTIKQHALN

[6] = target: Phosphatidylinositol 4,5-bisphosphate 3-kinase catalytic subunit gamma isoform (Homo sapiens, UniProt P48736); experiment: Inhibition of PI3Kgamma (unknown origin)
Phosphatidylinositol 4,5-bisphosphate 3-kinase catalytic subunit gamma isoform, sequence (P48736 whole entry, canonical isoform): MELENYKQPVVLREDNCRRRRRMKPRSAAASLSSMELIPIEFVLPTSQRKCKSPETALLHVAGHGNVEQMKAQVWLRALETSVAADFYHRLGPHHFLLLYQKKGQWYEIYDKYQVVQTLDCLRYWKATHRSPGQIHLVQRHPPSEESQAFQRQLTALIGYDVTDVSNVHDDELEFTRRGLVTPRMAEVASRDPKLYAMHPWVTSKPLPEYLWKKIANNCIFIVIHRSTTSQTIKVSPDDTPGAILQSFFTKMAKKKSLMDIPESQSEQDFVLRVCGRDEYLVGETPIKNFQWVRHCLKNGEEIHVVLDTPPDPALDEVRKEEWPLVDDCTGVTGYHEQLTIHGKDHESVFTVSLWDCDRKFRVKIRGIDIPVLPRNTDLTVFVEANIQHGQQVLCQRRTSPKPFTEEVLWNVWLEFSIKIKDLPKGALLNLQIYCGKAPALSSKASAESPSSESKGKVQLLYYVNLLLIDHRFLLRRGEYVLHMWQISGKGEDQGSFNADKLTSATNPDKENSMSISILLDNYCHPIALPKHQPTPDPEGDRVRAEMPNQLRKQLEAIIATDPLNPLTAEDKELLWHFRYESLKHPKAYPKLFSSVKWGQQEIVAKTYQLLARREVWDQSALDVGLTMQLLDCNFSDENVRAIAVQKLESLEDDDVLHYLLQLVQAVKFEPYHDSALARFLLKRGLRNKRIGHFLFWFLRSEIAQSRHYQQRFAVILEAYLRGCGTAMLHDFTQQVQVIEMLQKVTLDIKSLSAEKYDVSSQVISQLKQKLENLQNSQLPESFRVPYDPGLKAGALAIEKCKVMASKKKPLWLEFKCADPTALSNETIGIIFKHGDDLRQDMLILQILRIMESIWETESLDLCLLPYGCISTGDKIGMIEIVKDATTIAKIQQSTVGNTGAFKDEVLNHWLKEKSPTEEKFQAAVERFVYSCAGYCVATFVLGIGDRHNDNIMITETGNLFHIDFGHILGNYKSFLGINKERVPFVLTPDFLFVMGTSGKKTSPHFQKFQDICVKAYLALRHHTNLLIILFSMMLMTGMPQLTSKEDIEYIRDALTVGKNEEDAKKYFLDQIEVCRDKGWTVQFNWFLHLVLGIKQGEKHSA

Homo sapiens [7] = organism: Homo sapiens; experiment: Selectivity index, ratio of IC50 for inhibition of PI3Kgamma (unknown origin) to IC50 for inhibition of PI3Kdelta (unknown origin) by ADP Glo luminescent assay
MV4-11 [8] = experiment: Induction of apoptosis in human MV4-11 cells assessed as necrotic cells at 5 uM incubated for 48 hrs by Annexin V/PI staining based flow cytometric analysis (reference value: 0.060%); format: functional
MV4-11 [9] = experiment: Induction of apoptosis in human MV4-11 cells assessed as viable cells at 1 uM incubated for 48 hrs by Annexin V/PI staining based flow cytometric analysis (reference value: […]); format: functional; details: read-out: Activity
[10] = target: Serine/threonine-protein kinase AKT (Homo sapiens) (UniProt P31751+Q9Y243+P31749); experiment: Inhibition of AKT phosphorylation in human MV4-11 cells incubated for 4 hrs by Western blot analysis; format: cell-based; details: dose 1-10 µM
Serine/threonine-protein kinase AKT (Homo sapiens), sequence (P31749 whole entry, looked up): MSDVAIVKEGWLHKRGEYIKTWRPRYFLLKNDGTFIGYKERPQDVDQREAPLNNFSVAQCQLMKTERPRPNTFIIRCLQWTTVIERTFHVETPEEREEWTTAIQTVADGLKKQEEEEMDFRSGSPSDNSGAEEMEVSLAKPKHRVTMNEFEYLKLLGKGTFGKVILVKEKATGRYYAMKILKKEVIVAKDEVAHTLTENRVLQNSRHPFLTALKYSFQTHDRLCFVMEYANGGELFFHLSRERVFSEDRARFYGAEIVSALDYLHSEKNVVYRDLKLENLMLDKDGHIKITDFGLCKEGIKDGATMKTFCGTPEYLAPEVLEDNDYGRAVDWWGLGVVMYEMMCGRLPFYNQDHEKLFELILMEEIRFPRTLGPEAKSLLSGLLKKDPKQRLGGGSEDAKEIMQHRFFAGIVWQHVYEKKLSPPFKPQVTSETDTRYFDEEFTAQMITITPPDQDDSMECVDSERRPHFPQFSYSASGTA
Serine/threonine-protein kinase AKT (Homo sapiens), sequence (P31751 whole entry, looked up): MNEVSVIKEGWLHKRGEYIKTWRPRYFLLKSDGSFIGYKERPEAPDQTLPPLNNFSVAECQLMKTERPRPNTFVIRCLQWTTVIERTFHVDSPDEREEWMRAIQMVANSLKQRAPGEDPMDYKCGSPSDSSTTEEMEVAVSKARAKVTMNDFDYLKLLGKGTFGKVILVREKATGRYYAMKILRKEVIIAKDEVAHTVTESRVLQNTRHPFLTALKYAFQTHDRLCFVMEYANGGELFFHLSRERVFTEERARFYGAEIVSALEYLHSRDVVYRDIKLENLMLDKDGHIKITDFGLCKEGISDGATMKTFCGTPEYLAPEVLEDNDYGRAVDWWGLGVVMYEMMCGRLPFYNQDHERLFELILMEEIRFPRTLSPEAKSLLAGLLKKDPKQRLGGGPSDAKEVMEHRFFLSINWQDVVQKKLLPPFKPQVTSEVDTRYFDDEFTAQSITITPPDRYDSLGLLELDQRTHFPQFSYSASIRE
Serine/threonine-protein kinase AKT (Homo sapiens), sequence (Q9Y243 whole entry, looked up): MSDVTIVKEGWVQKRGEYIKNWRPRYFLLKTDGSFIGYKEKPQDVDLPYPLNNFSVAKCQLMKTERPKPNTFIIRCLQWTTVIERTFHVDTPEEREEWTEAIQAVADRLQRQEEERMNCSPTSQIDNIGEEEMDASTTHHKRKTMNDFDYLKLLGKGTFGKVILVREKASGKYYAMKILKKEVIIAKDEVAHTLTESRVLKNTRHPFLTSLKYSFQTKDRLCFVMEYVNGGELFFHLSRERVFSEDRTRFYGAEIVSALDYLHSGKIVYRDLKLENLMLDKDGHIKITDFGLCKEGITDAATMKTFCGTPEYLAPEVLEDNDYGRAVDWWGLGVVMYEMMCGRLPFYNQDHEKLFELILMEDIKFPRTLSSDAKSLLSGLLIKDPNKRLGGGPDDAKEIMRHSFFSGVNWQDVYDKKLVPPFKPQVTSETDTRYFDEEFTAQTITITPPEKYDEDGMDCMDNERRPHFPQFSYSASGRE

MV4-11 [11] = experiment: Cell cycle arrest in human MV4-11 cells assessed as accumulation of cells at G2/M phase incubated for 24 hrs by flow cytometric analysis; format: functional, cell-based; details: dose 1-10 µM
MV4-11 [12] = experiment: Induction of apoptosis in human MV4-11 cells assessed as late apoptotic cells at 3 uM incubated for 48 hrs by Annexin V/PI staining based flow cytometric analysis (reference value: 2.82%); format: functional
MV4-11 [13] = experiment: Induction of apoptosis in human MV4-11 cells assessed as late apoptotic cells at 10 uM incubated for 48 hrs by Annexin V/PI staining based flow cytometric analysis (reference value: 2.82%); format: functional
MV4-11 [14] = experiment: Induction of apoptosis in human MV4-11 cells assessed as early apoptotic cells at 1 uM incubated for 48 hrs by Annexin V/PI staining based flow cytometric analysis (reference value: 1.57%); format: functional
MV4-11 [15] = experiment: Induction of apoptosis in human MV4-11 cells assessed as early apoptotic cells at 3 uM incubated for 48 hrs by Annexin V/PI staining based flow cytometric analysis (reference value: 1.57%); format: functional
MV4-11 [16] = experiment: Induction of apoptosis in human MV4-11 cells assessed as total apoptotic cells at 1 to 10 uM incubated for 48 hrs by Annexin V/PI staining based flow cytometric analysis (reference value: 4.39%); format: functional; details: dose 1-10 µM
MV4-11 [17] = experiment: Induction of apoptosis in human MV4-11 cells assessed as early apoptotic cells at 10 uM incubated for 48 hrs by Annexin V/PI staining based flow cytometric analysis (reference value: 1.57%); format: functional
MV4-11 [18] = experiment: Induction of apoptosis in human MV4-11 cells assessed as early apoptotic cells at 5 uM incubated for 48 hrs by Annexin V/PI staining based flow cytometric analysis (reference value: 1.57%); format: functional
Homo sapiens [19] = organism: Homo sapiens; experiment: Selectivity index, ratio of IC50 for inhibition of PI3Kbeta (unknown origin) to IC50 for inhibition of PI3Kdelta (unknown origin) by ADP Glo luminescent assay
MV4-11 [20] = experiment: Induction of apoptosis in human MV4-11 cells assessed as viable cells at 3 uM incubated for 48 hrs by Annexin V/PI staining based flow cytometric analysis (reference value: […]); format: functional; details: read-out: Activity
MV4-11 [21] = experiment: Induction of apoptosis in human MV4-11 cells assessed as viable cells at 5 uM incubated for 48 hrs by Annexin V/PI staining based flow cytometric analysis (reference value: […]); format: functional; details: read-out: Activity
MV4-11 [22] = experiment: Induction of apoptosis in human MV4-11 cells assessed as viable cells at 10 uM incubated for 48 hrs by Annexin V/PI staining based flow cytometric analysis (reference value: […]); format: functional; details: read-out: Activity
MV4-11 [23] = experiment: Induction of apoptosis in human MV4-11 cells assessed as late apoptotic cells at 1 uM incubated for 48 hrs by Annexin V/PI staining based flow cytometric analysis (reference value: 2.82%); format: functional
MV4-11 [24] = experiment: Induction of apoptosis in human MV4-11 cells assessed as necrotic cells at 1 uM incubated for 48 hrs by Annexin V/PI staining based flow cytometric analysis (reference value: 0.060%); format: functional
Homo sapiens [25] = organism: Homo sapiens; experiment: Selectivity index, ratio of IC50 for inhibition of PI3Kalpha (unknown origin) to IC50 for inhibition of PI3Kdelta (unknown origin) by ADP Glo luminescent assay
MV4-11 [26] = experiment: Induction of apoptosis in human MV4-11 cells assessed as late apoptotic cells at 5 uM incubated for 48 hrs by Annexin V/PI staining based flow cytometric analysis (reference value: 2.82%); format: functional
MV4-11 [27] = experiment: Induction of apoptosis in human MV4-11 cells assessed as necrotic cells at 3 uM incubated for 48 hrs by Annexin V/PI staining based flow cytometric analysis (reference value: 0.060%); format: functional
MV4-11 [28] = experiment: Induction of apoptosis in human MV4-11 cells assessed as necrotic cells at 10 uM incubated for 48 hrs by Annexin V/PI staining based flow cytometric analysis (reference value: 0.060%); format: functional

Compound: CCOc1ncc(-c2ccc(N)nc2)cc1N
IC50 [1]: > 50000 nM

Compound: Nc1ccc(-c2cnc(Cl)c(NS(=O)(=O)c3ccc(F)cc3)c2)cn1
IC50 [1]: 98 nM

Compound: Oc1cccc(-c2nc(N3CCOCC3)c3oc4ncccc4c3n2)c1 [PI-103]
IC50 (EOL1): 1600 nM
IC50 (KG-1): 88 nM
IC50 (MV4-11 [2]): 54 nM
IC50 (HL-60): 89 nM
IC50 [3]: 58 nM

Compound: Nc1cncc(-c2ccc(N)nc2)c1
IC50 [1]: > 50000 nM

Compound: N#Cc1cc(-c2ccc(N)nc2)cnc1Cl
IC50 [1]: > 50000 nM

Compound: CN(c1cc(-c2ccc(N)nc2)cnc1Cl)S(=O)(=O)c1ccccc1
IC50 [1]: 11300 nM

Compound: CCNC(=O)Nc1ccc(-c2cnc(Cl)c(NS(=O)(=O)c3ccccc3)c2)cn1
IC50 [4]: 235 nM
IC50 [5]: 412 nM
IC50 [1]: 104 nM
IC50 [6]: 180 nM

Compound: CCCC(=O)Nc1ccc(-c2cnc(Cl)c(NS(=O)(=O)c3ccccc3)c2)cn1
IC50 [1]: 46 nM

Compound: Nc1ccc(-c2cnc(Cl)c(NS(=O)(=O)c3ccc(F)cc3F)c2)cn1
IC50 [1]: 67 nM

Compound: Nc1ccc(-c2cnc(F)c(N)c2)cn1
IC50 [1]: > 50000 nM

Compound: N#Cc1ncc(-c2ccc(N)nc2)cc1N
IC50 [1]: 33500 nM

Compound: CC(C)(C)c1ccc(S(=O)(=O)Nc2cc(-c3ccc(N)nc3)cnc2Cl)cc1
IC50 [1]: 31 nM

Compound: COCCNC(=O)Nc1ccc(-c2cnc(Cl)c(NS(=O)(=O)c3ccccc3)c2)cn1
Ratio IC50 (Homo sapiens [7]): 8
IC50 (EOL1): 15900 nM
Activity (MV4-11 [8]): 1.69%
viability at 1 µM (MV4-11 [9]): 96%
inhibition [10]: Dose-Dependent Effect
Activity (MV4-11 [11]): Dose-Dependent Effect
Activity (MV4-11 [12]): 4.18%
Activity (MV4-11 [13]): 28.1%
Activity (MV4-11 [14]): 1.2%
Activity (MV4-11 [15]): 1.47%
Activity (MV4-11 [16]): 3.85%
Activity (MV4-11 [17]): 3.21%
Activity (MV4-11 [18]): 1.92%
IC50 (KG-1): 18900 nM
Ratio IC50 (Homo sapiens [19]): 8
IC50 [4]: 295 nM
IC50 [5]: 288 nM
viability at 3 µM (MV4-11 [20]): 94%
viability at 5 µM (MV4-11 [21]): 85.5%
viability at 10 µM (MV4-11 [22]): 57.4%
IC50 (MV4-11 [2]): 3700 nM
Activity (MV4-11 [23]): 2.65%
Activity (MV4-11 [24]): 0.1%
Ratio IC50 (Homo sapiens [25]): 8
Activity (MV4-11 [26]): 10.9%
Activity (MV4-11 [27]): 0.335%
IC50 [1]: 30 nM
IC50 (HL-60): 8700 nM
Activity (MV4-11 [28]): 11.3%
IC50 [3]: 2600 nM
IC50 [6]: 243 nM

Compound: Nc1ccc(-c2cnc(Cl)c(N)c2)cn1
IC50 [1]: 32500 nM

Further lines, with some results ahead:

IC50 [1]: 47500 nM
Compound: Nc1ccc(-c2ccc(Cl)nc2)cn1

IC50 [1]: 48 nM
Compound: CC(=O)Nc1ccc(-c2cnc(Cl)c(NS(=O)(=O)c3ccccc3)c2)cn1

IC50 [1]: > 50000 nM
Compound: Cc1ncc(-c2ccc(N)nc2)cc1N

IC50 (MV4-11 [2]): 4300 nM
IC50 (HL-60): 480 nM
Compound: CC[C@H](Nc1ncnc2[nH]cnc12)c1nc2cccc(F)c2c(=O)n1-c1ccccc1 [IDELALISIB]
IC50 (EOL1): > 50000 nM
IC50 (KG-1): 15200 nM
IC50 [3]: 13300 nM

IC50 [1]: 52 nM
Compound: Nc1ccc(-c2cnc(Cl)c(NS(=O)(=O)c3ccccc3)c2)cn1

IC50 [1]: > 50000 nM
Compound: COc1ncc(-c2ccc(N)nc2)cc1N

IC50 [1]: 41 nM
Compound: Cc1ccc(S(=O)(=O)Nc2cc(-c3ccc(N)nc3)cnc2Cl)cc1

IC50 [1]: 46600 nM
Compound: Nc1ccc(-c2cnc(Cl)c(C(F)(F)F)c2)cn1

IC50 [1]: > 50000 nM
Compound: Nc1ccc(-c2cnc(N)c(N)c2)cn1

IC50 [1]: 49 nM
Compound: CCC(=O)Nc1ccc(-c2cnc(Cl)c(NS(=O)(=O)c3ccccc3)c2)cn1

IC50 [1]: > 50000 nM
Compound: Nc1ccc(-c2cnc(Cl)c(F)c2)cn1
